Earlier results in article PMC9788431, “Combination of Docking-Based and Pharmacophore-Based Virtual Screening Identifies Novel Agonists That Target the Urotensin Receptor” (Molecules, 2022).
pEC50, pIC50: −log10 of the molar value. Where “and” joins values, the source holds several entries; their conditions need not be identical. Equal entries are not always repeated. Positions of bridges follow the written chain, without caps; N, C: chain ends. Non-standard residues stand in square brackets, D forms with d. Residues, ends and D or L forms follow the SMILES beside them. Phe(4-I) = N[C@@H](Cc1ccc(I)cc1)C(=O)O

molecular target: T1, UT receptor (Homo sapiens, UniProt Q9UKP6); set-up: method as in ChEMBL database and others; conditions: antagonist; Table S1 benchmarking ligands; ref ChEMBL database and others; cited from earlier work
T1 construct: SNAP-tag; expressed in transfected cells; host or cells: 293A8 (HEK293A stably transfected with the UT receptor); inferred, the calcium-assay paragraph names no cells
T1 sequence (Q9UKP6 1-389): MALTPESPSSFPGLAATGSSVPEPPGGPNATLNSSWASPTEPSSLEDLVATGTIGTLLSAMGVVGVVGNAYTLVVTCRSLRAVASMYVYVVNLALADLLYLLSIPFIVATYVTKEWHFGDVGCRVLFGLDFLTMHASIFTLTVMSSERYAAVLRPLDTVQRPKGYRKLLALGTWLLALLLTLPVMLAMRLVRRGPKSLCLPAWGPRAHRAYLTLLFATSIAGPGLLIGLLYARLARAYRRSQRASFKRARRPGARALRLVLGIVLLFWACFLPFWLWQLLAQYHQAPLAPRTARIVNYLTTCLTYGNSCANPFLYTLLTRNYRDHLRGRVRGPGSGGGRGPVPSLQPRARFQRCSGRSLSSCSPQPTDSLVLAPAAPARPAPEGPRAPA

SMILES	pIC50
CC(C)[C@H](NC(=O)[C@@H]1CSSC[C@H](NC(=O)[C@H](C)N)C(=O)N[C@@H](Cc2ccccc2)C(=O)N[C@@H](Cc2c[nH]c3ccccc23)C(=O)N[C@@H](CCCCN)C(=O)N[C@@H](Cc2ccc(O)cc2)C(=O)N1)C(=O)O [CHEMBL3104471]	7.92
O=C(NC1CCN(Cc2ccc(OC3CCNCC3)c(Br)c2)CC1)c1ccco1 [CHEMBL3942137]	6.11
Cc1cc2nccc(NC(=O)NCCN3CCC(O)(Cc4ccccc4)CC3)c2s1 [CHEMBL3358674]	7.11
Cc1cc(NC(=O)NCCN2CCC(O)(Cc3ccccc3)CC2)c2ccccc2n1 [CHEMBL1164032]	8.44
Cc1cc(NC(=O)NCCN2CCC(O)(Cc3ccccc3)CC2)c2sccc2n1 [CHEMBL3358679]	7.59
CC(C)[C@H](NC(=O)[C@@H]1CSSC[C@H](NC(=O)[C@H](C)N)C(=O)N[C@@H](Cc2ccccc2)C(=O)N2CCc3ccccc3[C@H]2C(=O)N[C@@H](CCCCN)C(=O)N[C@@H](Cc2ccc(O)cc2)C(=O)N1)C(=O)O [CHEMBL3104464]	8.00
O=C(NCCN1CCC(O)(Cc2cccc(Br)c2)CC1)Nc1ccnc2ccsc12 [CHEMBL3358686]	7.38
COc1cccc(-c2ccc3cc(C(=O)NC4CCN(Cc5ccc(OC6CCNCC6)c(Br)c5)CC4)sc3c2)c1 [CHEMBL3987058]	7.06
CCN1CCN(c2cccc3c2CN([C@H](CCCNS(=O)(=O)c2cccs2)c2ccc(OC)c(OC)c2)C3=O)CC1 [CHEMBL567713]	8.10
CN(C)CCCOc1ccc(CN2CC[C@H](NC(=O)c3ccc(Cl)c(Cl)c3)C2)cc1 [CHEMBL366221]	6.77
COc1cccc(CNc2ccc(C(F)(F)F)c(O[C@H]3CCN(C)C3)c2)c1 [CHEMBL2348517]	6.16
O=C(NC1CCN(Cc2ccc(OC3CCNCC3)c(Br)c2)CC1)c1cc2ccc(-c3ccc(Cl)cc3)cc2s1 [CHEMBL3907266]	6.85
CCN1CCN(c2cccc3c2CN([C@H](CCCN(C)S(=O)(=O)c2cccs2)c2ccc(OC)c(OC)c2)C3=O)CC1 [CHEMBL571535]	7.06
COc1ccc([C@@H](CCCN(C)S(=O)(=O)c2cccs2)N2Cc3c(cccc3N3CCN(C4CCC4)CC3)C2=O)cc1OC [CHEMBL571537]	6.29

molecular target: T1, UT receptor; conditions: agonist; Table S1 benchmarking ligands; ref ChEMBL database and others; cited from earlier work

SMILES	pEC50
CN(C)CCC(NC(=O)c1cccc(-c2ccc3ccccc3c2)c1)c1ccc(Cl)cc1 (stereo not shown) [CHEMBL573575]	6.44
CN(C)CCC(NC(=O)Nc1ccc(C(C)(C)C)cc1)c1ccc(Cl)cc1 (stereo not shown) [CHEMBL205681]	6.56
CN(C)CCC1(c2ccc(Cl)cc2)Cc2ccccc2CO1 (stereo not shown) [CHEMBL1173172]	6.30
CN(C)CCC(NC(=O)c1ccc(-c2ccc3ccccc3c2)cc1)c1ccc(Cl)cc1 (stereo not shown) [CHEMBL572391]	6.51
CN(C)CCC(NC(=O)c1ccc(-c2ccc3ccccc3c2)cc1)c1ccc2ccccc2c1 (stereo not shown) [CHEMBL578853]	6.28
Cc1ccc(C(CCN(C)C)NC(=O)c2ccc(-c3ccc4ccccc4c3)cc2)cc1 (stereo not shown) [CHEMBL575630]	6.09
CN(C)CCC(NC(=O)C#Cc1ccccc1)c1ccc(Cl)cc1 (stereo not shown) [CHEMBL228471]	6.40
CC(C)[C@H](NC(=O)[C@H](CS)NC(=O)[C@H](Cc1ccc(O)cc1)NC(=O)[C@H](CCCCN)NC(=O)[C@H](Cc1c[nH]c2ccccc12)NC(=O)[C@H](Cc1ccccc1)NC(=O)[C@H](C)NC(=O)[C@H](CC(=O)O)NC(=O)[C@H]1CCCN1C(=O)[C@@H](NC(=O)[C@@H](N)CCC(=O)O)[C@@H](C)O)C(=O)O [CHEMBL2372895] (H-ET[dP]DAFWKYCV-OH)	6.63
CN(C)CCC(NC(=O)c1ccc(-c2ccc(Cl)cc2)cc1)c1ccc(Cl)cc1 (stereo not shown) [CHEMBL572882]	7.12
CC(C)[C@H](NC(=O)[C@H](CS)NC(=O)[C@H](Cc1ccc(O)cc1)NC(=O)[C@H](CCCCN)NC(=O)[C@H](Cc1c[nH]c2ccccc12)NC(=O)[C@H](Cc1ccccc1)NC(=O)[C@H](CS)NC(=O)[C@@H](N)CC(=O)O)C(=O)O [CHEMBL414256] (H-DCFWKYCV-OH)	8.52
COc1ccc(/C=C/C2=NN(CCCCN)C(=O)N(Cc3ccc(-c4ccccc4)cc3)c3ccccc32)cc1 [CHEMBL4071437]	8.15 and 8.07
CC(C)[C@H](NC(=O)[C@@H]1CSSC[C@H](NC(=O)[C@@H](N)CC(=O)O)C(=O)N[C@@H](Cc2ccc(I)cc2)C(=O)N[C@@H](Cc2c[nH]c3ccccc23)C(=O)N[C@@H](CCCCN)C(=O)N[C@@H](Cc2ccc(O)cc2)C(=O)N1)C(=O)O [CHEMBL4205274] (H-DC[Phe(4-I)]WKYCV-OH; disulfide 2-7)	6.72
Cc1ccc(C(CCN(C)C)NC(=O)c2ccc(-c3ccc(Cl)cc3)cc2)cc1 (stereo not shown) [CHEMBL572883]	6.90
CN(C)CCC1(c2ccc(Cl)cc2)Cc2ccccc2C(=O)O1 (stereo not shown) [CHEMBL535141]	6.60 and 6.50
CC(C)[C@H](NC(=O)[C@H](CS)NC(=O)[C@H](Cc1ccc(O)cc1)NC(=O)[C@H](CCCCN)NC(=O)[C@H](Cc1c[nH]c2ccccc12)NC(=O)[C@H](Cc1ccccc1)NC(=O)[C@H](CS)NC(=O)[C@H](CC(=O)O)NC(=O)[C@H]1CCCN1C(=O)[C@@H](NC(=O)[C@@H](N)CCC(=O)O)[C@@H](C)O)C(=O)O [CHEMBL408106]	8.60
CC(C)[C@H](NC(=O)[C@H](CS)NC(=O)[C@H](Cc1ccc(O)cc1)NC(=O)[C@H](CCCCN)NC(=O)[C@H](Cc1c[nH]c2ccccc12)NC(=O)[C@H](Cc1ccccc1)NC(=O)[C@H](CS)NC(=O)[C@H](C)NC(=O)[C@H]1CCCN1C(=O)[C@@H](NC(=O)[C@@H](N)CCC(=O)O)[C@@H](C)O)C(=O)O [CHEMBL2372896]	8.57
COc1ccc(-c2ccc(C(=O)NC(CCN(C)C)c3ccc(C)cc3)cc2)cc1 (stereo not shown) [CHEMBL575629]	6.46
Cc1ccc(C(CCN(C)C)NC(=O)c2cccc(-c3ccccc3)c2)cc1 (stereo not shown) [CHEMBL572392]	6.09

SMILES	pEC50
CN(C)CCC(NC(=O)c1cccc(-c2ccccc2)c1)c1ccc2ccccc2c1 (stereo not shown) [CHEMBL575819]	6.27
CC(C)[C@H](NC(=O)[C@H](CS)NC(=O)[C@H](C)NC(=O)[C@H](CCCCN)NC(=O)[C@H](Cc1c[nH]c2ccccc12)NC(=O)[C@H](Cc1ccccc1)NC(=O)[C@H](CS)NC(=O)[C@H](CC(=O)O)NC(=O)[C@H]1CCCN1C(=O)[C@@H](NC(=O)[C@@H](N)CCC(=O)O)[C@@H](C)O)C(=O)O [CHEMBL2372903] (H-ET[dP]DCFWKACV-OH)	6.71
CC(C)[C@H](NC(=O)[C@H](CS)NC(=O)[C@H](Cc1ccc(O)cc1)NC(=O)[C@H](CCCCN)NC(=O)[C@H](Cc1c[nH]c2ccccc12)NC(=O)[C@H](CS)NC(=O)[C@H](CC(=O)O)NC(=O)[C@H]1CCCN1C(=O)[C@@H](NC(=O)[C@@H](N)CCC(=O)O)[C@@H](C)O)C(=O)O [CHEMBL412753] (H-ET[dP]DCWKYCV-OH)	7.28
NCCCC[C@@H]1NC(=O)[C@H](Cc2c[nH]c3ccccc23)NC(=O)[C@H](Cc2ccc(O)cc2)NC(=O)CNC(=O)[C@@H]2CCCN2C(=O)[C@H](Cc2ccccc2)NC1=O [CHEMBL608097] (cyclo(FPGYWK))	7.12
Cc1cc2c(cc1C)C(=O)OC(CCN(C)C)(c1ccc(Cl)c(Cl)c1)C2 (stereo not shown) [CHEMBL1171808]	7.29
Cc1ccc(C(CCN(C)C)NC(=O)/C=C/c2ccc(C(F)(F)F)cc2)cc1 (stereo not shown) [CHEMBL229923]	6.36
Cc1ccc(C(CCN(C)C)NC(=O)c2cccc(-c3ccc(Cl)cc3)c2)cc1 (stereo not shown) [CHEMBL574731]	6.19
CN(C)CCC(NC(=O)c1ccc(-c2ccc(Cl)cc2)cc1)c1ccc2ccccc2c1 (stereo not shown) [CHEMBL572439]	7.36
NCCCC[C@@H]1NC(=O)[C@H](Cc2c[nH]c3ccccc23)NC(=O)[C@H](CO)NC(=O)CNC(=O)[C@@H]2CCCN2C(=O)[C@H](Cc2ccccc2)NC1=O [CHEMBL593663] (cyclo(FPGSWK))	8.00
CN(C)CCC(NC(=O)C#Cc1ccccc1)c1ccc2ccccc2c1 (stereo not shown) [CHEMBL229764]	6.34
CN(C)CCC(NC(=O)c1cccc(-c2ccc(Cl)cc2)c1)c1ccc(Cl)cc1 (stereo not shown) [CHEMBL582835]	6.36
O=C(NC(CCN1CCCCC1)c1ccc(Cl)cc1)c1ccc(-c2ccccc2)cc1 (stereo not shown) [CHEMBL572467]	6.18
CN(C)CC[C@H](NC(=O)c1ccc2ccccc2c1)c1ccc(Cl)cc1 [CHEMBL207783]	6.39
NCCCC[C@@H]1NC(=O)[C@H](Cc2c[nH]c3ccccc23)NC(=O)[C@H](Cc2ccccc2)NC(=O)CNC(=O)[C@@H]2CCCN2C(=O)[C@H](Cc2ccc(O)cc2)NC1=O [CHEMBL607809] (cyclo(FWKYPG))	8.16
CC(C)[C@H](NC(=O)[C@H](CS)NC(=O)[C@H](Cc1ccc(O)cc1)NC(=O)[C@H](CCCCN)NC(=O)[C@H](Cc1c[nH]c2ccccc12)NC(=O)[C@H](Cc1ccccc1)NC(=O)[C@H](CS)NC(=O)[C@H](CC(=O)O)NC(=O)[C@H]1CCCN1C(=O)[C@@H](NC(=O)[C@H](C)N)[C@@H](C)O)C(=O)O [CHEMBL2372899] (H-AT[dP]DCFWKYCV-OH)	8.74
NCCCC[C@@H]1NC(=O)[C@H](Cc2c[nH]c3ccccc23)NC(=O)[C@H](Cc2ccccc2)NC(=O)CNC(=O)[C@@H]2CCCN2C(=O)[C@H](Cc2ccccc2)NC1=O [CHEMBL607811] (cyclo(FPGFWK))	7.88
CC(C)[C@H](NC(=O)[C@H](CS)NC(=O)[C@H](Cc1ccc(O)cc1)NC(=O)[C@H](CCCCN)NC(=O)[C@H](Cc1c[nH]c2ccccc12)NC(=O)[C@H](Cc1ccccc1)NC(=O)[C@H](CS)NC(=O)[C@H](CC(=O)O)NC(=O)[C@H]1CCCN1C(=O)[C@@H](N)[C@@H](C)O)C(=O)O [CHEMBL427632] (H-T[dP]DCFWKYCV-OH)	8.62
